The values below come from US9216995B2, “Pyridone derivative having integrase inhibitory activity” (SHIONOGI & CO., LTD., priority 2010, dated 2015).

One experiment deals with HIV. The experiment is described as follows: Anti-HIV activity (HeLa-CD4 cells, β-gal reporter assay). The class given is cell-based. The settings on record: Human immunodeficiency virus 1, 72 h, concentration to inhibit HIV infection by 50%, 3 days, luminescence. On the procedure: A HeLa-CD4 cell suspension (2.5×10^4 cell/well) was dispensed to each well on an assay plate. After incubating at 37° C. for 1 hour under condition of 5% CO2, a solution to dilute a compound (50 μL) was added to each well (provided that a cell control was excluded). A culture solution (50 μL) was added to a well of the cell control. The plate was incubated at 37° C. for 3 days under condition of 5% CO2.
After the culture solution was aspirated from each well, 100 μL of a cell lysate of the reporter assay kit—β gal—was added to all wells, and then the plate was frozen at −80° C. to completely lyse cells. The plate was left at room temperature to unfreeze the cell lysate, it was centrifuged at 1200 rpm for 5 minutes at room temperature (Kubota centrifuge KR-600P). 20 μL of the supernatant was dispensed from each well to 96-well black plate, 100 μL of a luminescent reagent of the reporter assay kit—β gal—was added to each well. The plate was incubated at room temperature for 1 hour. The luminescence intensity from each well was measured by MicroBeta TRILUX instrument (PerkinElmer). A concentration (conc.) to inhibit HIV infection by 50% was calculated to obtain an EC50 value.
(In general: In a reporter assay the amount or activity of a reporter protein is the signal.)

A further experiment addresses HIV integrase (Human immunodeficiency virus type 1 group M subtype B, UniProt P04585). The experiment is described as follows: Integrase inhibitory activity (strand transfer ELISA on streptavidin plates). The class given is biochemical. The settings on record: integrase inhibition rate, absorbance OD 405 nm. On the procedure: By the same method as that described in Experimental Example 1 of Patent Document 2, a substrate DNA solution (2 μmol/μl) and a target DNA solution (5 μmol/μl) were prepared. […] Each sequence of a substrate DNA and a target DNA is as described in the same Experimental Example.
(2) Measurement of Inhibition Rate (IC50 Value)
Onto Immobilizer—Streptavidin Plates (manufactured by NUNC) was added 50 μl of a substrate DNA solution (2 μmol/μl). After adsorbing at room temperature for 60 minutes under shaking, it was washed with a phosphate buffer two times.
Then, to each well prepared as described above were added 12 μl of a buffer (composition: 150 mM MOPS (pH7.2), 75 mM MnCl2, 50 mM 2-mercaptoethanol, 25% glycerol, 500 μg/ml bovine serum albumin-fraction V), and 51 μl of a reaction solution prepared from 39 μl of distilled water. Then, 9 μl of an integrase solution (30 μmol) was added, and the mixture was mixed well. To a well as a negative control (NC) was added 9 μl of a diluting solution (composition: 20 mM MOPS (pH 7.2), 400 mM potassium glutamate, 1 mM EDTA, 0.1% NP-40, 20% glycerol, 1 mM DTT, 4 M urea), and this was mixed well using a plate mixer.
After the plate was incubated at 30° C. for 60 minutes, the reaction solution was discarded, followed by washing with 200 μl of a washing buffer (composition: 150 mM MOPS (pH 7.2), 50 mM 2-mercaptoethanol, 25% glycerol, 500 μg/ml bovine serum albumin-fraction V) three times.
Then, to each well were added 12 μl of a buffer (composition: 150 mM MOPS (pH 7.2), 75 mM MgCl2, 50 mM 2-mercaptoethanol, 25% glycerol, 500 μg/ml bovine serum albumin-fraction V), and 53 μl of a reaction solution prepared from 41 μl of distilled water. Further, 6 μl of a solution of a test compound in DMSO was added to each well, and 6 μl of DMSO was added to a well as a positive control (PC), followed by mixing well using a plate mixer. After the plate was incubated at 30° C. for 60 minutes, 1 μl of a target DNA (5 μmol/μl) was added, and this was mixed well using a plate mixer.
After each plate was incubated at 30° C. for 10 minutes, the reaction solution was discarded, followed by washing with a phosphate buffer two times. Then, an anti-digoxigenin antibody labeled with alkaline phosphatase (sheep Fab fragment: manufactured by Boehringer) was diluted 2000-fold with an antibody diluting solution, 100 μl of the diluent was added to bind at 30° C. for 1 hour, and this was washed successively with a phosphate buffer containing 0.05% Tween 20 two times, and a phosphate buffer two times. […]
C abs.: Absorbance of well of compound
NC abs.: Absorbance of NC
PC abs.: Absorbance of PC
In general terms: In an ELISA, binding on a coated surface is turned into a signal by an enzyme label.

A word on the EC50: it is the midpoint of the concentration-response curve. Read a high EC50 as a need for much substance. The IC50 is the midpoint of a concentration-inhibition curve. High values mean a need for much substance, low ones inhibition by little substance.

In turn, `C[C@@H]1CCO[C@H]2Cn3cc(C(=O)NCc4nccs4)c(=O)c(O)c3C(=O)N12` [Compound A-12] showed an EC50 with HIV of 32 nM.

With `C[C@@H]1CCO[C@H]2Cn3cc(C(=O)NC(c4ccccc4)c4ccccc4)c(=O)c(O)c3C(=O)N12` [Compound A-15], the 50% effective concentration (EC50) with HIV was 16 nM.

As for `C[C@@H]1CCO[C@H]2Cn3cc(C(=O)NCc4cc5ccccc5s4)c(=O)c(O)c3C(=O)N12` [Compound A-20], the response with HIV was half-maximal at 11 nM (EC50). The compound also showed an IC50 at HIV integrase of 28.4 nM.

`C[C@@H]1CCO[C@H]2Cn3cc(C(=O)NC[C@@H]4CCCO4)c(=O)c(O)c3C(=O)N12` [Compound A-21] had an EC50 in the experiment on HIV of 25 nM. This lies in the double-digit nanomolar range.

As for `C[C@@H]1CCO[C@H]2Cn3cc(C(=O)NNC(=O)c4ccc(F)cc4)c(=O)c(O)c3C(=O)N12` [Compound A-38], it took 15 nM to reach a half-maximal effect in the experiment on HIV (EC50).

`C[C@@H]1CCO[C@H]2Cn3cc(C(=O)NCc4cccs4)c(=O)c(O)c3C(=O)N12` [Compound A-39]: in the experiment on HIV, the EC50 was determined as 11 nM. The half-maximal inhibitory concentration (IC50) against HIV integrase was determined as 27 nM.

For the compound `C[C@@H]1CCO[C@H]2Cn3cc(C(=O)NCc4ccoc4)c(=O)c(O)c3C(=O)N12` [Compound A-41], the EC50 in the experiment with HIV stood at 42 nM. This counts as double-digit nanomolar.

Take `C[C@@H]1CCO[C@H]2Cn3cc(C(=O)NCCC4CCCCC4)c(=O)c(O)c3C(=O)N12` [Compound A-42]: the EC50 in the experiment with HIV was 46 nM.

With `C[C@@H]1CCO[C@H]2Cn3cc(C(=O)NCC4CCCCCC4)c(=O)c(O)c3C(=O)N12` [Compound A-50], the response in the experiment on HIV was half-maximal at 32 nM (EC50). The same compound gave an IC50 at HIV integrase of 13.5 nM.

Compound `C[C@@H]1CCO[C@H]2Cn3cc(C(=O)NCc4ccsc4)c(=O)c(O)c3C(=O)N12` [Compound A-56] had an EC50 in the experiment with HIV of 6.4 nM. Besides, on HIV integrase, the IC50 worked out at 29.7 nM.

In the experiment on HIV, `C[C@@H]1CCO[C@H]2Cn3cc(C(=O)NCCc4cccs4)c(=O)c(O)c3C(=O)N12` [Compound A-65] had an EC50 of 22 nM.

In the case of `C[C@@H]1CCO[C@H]2Cn3cc(C(=O)NCc4nc5ccccc5s4)c(=O)c(O)c3C(=O)N12` [Compound A-66], a half-maximal effect with HIV (EC50) was put at 38 nM.
